Laboratory results from patent US8557796B2, “Substituted 1-oxa-2,8-diaza-spiro [4,5] dec-2-ene derivatives and related treatment methods” (Gruenenthal GmbH, priority 2001, dated 2013).

target: T1, NA transporter (Rattus norvegicus, UniProt Q9WTR4); test: Noradrenalin uptake inhibition (NA-uptake) in synaptosomes; assay type: biochemical; conditions: rat hypothalamus synaptosomes
T1 construct: synaptosomes from rat brain regions were freshly isolated; from tissue; host or cells: P2 synaptosome fraction from hypothalamus of male rat brain
T1 sequence (Q9WTR4 1-597): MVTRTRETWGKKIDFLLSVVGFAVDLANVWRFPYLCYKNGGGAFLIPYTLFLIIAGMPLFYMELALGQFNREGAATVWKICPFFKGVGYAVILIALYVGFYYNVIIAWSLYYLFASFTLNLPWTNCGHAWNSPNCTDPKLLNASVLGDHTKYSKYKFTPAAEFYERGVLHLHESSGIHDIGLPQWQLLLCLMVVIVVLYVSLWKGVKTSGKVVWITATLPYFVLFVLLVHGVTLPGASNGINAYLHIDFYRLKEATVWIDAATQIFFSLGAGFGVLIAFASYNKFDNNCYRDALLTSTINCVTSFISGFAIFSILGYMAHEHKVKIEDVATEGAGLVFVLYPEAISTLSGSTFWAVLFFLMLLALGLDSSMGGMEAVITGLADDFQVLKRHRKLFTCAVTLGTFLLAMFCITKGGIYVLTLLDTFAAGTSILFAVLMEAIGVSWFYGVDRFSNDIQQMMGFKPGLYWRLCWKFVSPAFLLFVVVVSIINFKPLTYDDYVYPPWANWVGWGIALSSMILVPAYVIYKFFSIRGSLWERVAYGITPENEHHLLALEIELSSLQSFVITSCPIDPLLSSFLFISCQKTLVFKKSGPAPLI
Source text: Tests on Noradrenalin Uptake Inhibition (NA-Uptake Inhibition)
In order to be able to carry out these in vitro studies, synaptosomes from rat brain regions were freshly isolated.

**Q.** With `O=C(NCC1CC1)C1=NOC2(CCN(C(=O)c3ccc(C(F)(F)F)cc3)CC2)C1` [Example 107, 8-(4-trifluoromethyl-benzoyl)-1-oxa-2,8-diaza-spiro[4,5]dec-2-ene-3-carboxylic acid cyclopropylmethyl-amide] as the molecule, how does the inhibition at 10 µM read?
**A.** 42%

**Q.** `O=C(NCC1CC1)C1=NOC2(CCN(C(=O)c3ccc(SC(F)(F)F)cc3)CC2)C1` [Example 108, 8-(4-trifluoromethylsulphanyl-benzoyl)-1-oxa-2,8-diaza-spiro[4,5]dec-2-ene-3-carboxylic acid cyclopropylmethyl-amide] was tested. Which inhibition at 10 µM did it give?
**A.** 42%

**Q.** For `O=C(NCC1CC1)C1=NOC2(CCN(C(=O)c3ccc(C(F)(F)F)c(F)c3)CC2)C1` [Example 110, 8-(3-fluoro-4-trifluoromethyl-benzoyl)-1-oxa-2,8-diaza-spiro[4,5]dec-2-ene-3-carboxylic acid cyclopropylmethyl-amide], which inhibition at 10 µM is on record?
**A.** 45%

**Q.** With `CCSCCNC(=O)C1=NOC2(CCN(S(=O)(=O)CC34CCC(CC3=O)C4(C)C)CC2)C1` (stereo not shown) [Example 111, 8-(7,7-dimethyl-2-oxo-bicyclo[2.2.1]hept-1-ylmethane-sulphonyl)-1-oxa-2,8-diaza-spiro[4,5]dec-2-ene-3-carboxylic acid (2-ethylsulphanyl-ethyl)-amide] as the molecule, how does the inhibition at 10 µM read?
**A.** 40%

**Q.** Which “NA-uptake, 10 μM, % inhibition” value does the source give for `O=C(NCC1CCCO1)C1=NOC2(CCN(C(=O)c3ccc(F)cc3F)CC2)C1` (stereo not shown) [Example 112] here?
**A.** 45%

**Q.** How did the inhibition at 10 µM turn out when `COC(=O)CCC(=O)N1CCC2(CC1)CC(C(=O)NCc1cccs1)=NO2` [Example 114, 4-oxo-4-{3-[(thiophen-2-ylmethyl)-carbamoyl]-1-oxa-2,8-diaza-spiro[4,5]dec-2-ene-8-yl}-butyric acid methyl ester] was run?
**A.** 42%

**Q.** How did the inhibition at 10 µM turn out when `CCSc1ncccc1C(=O)N1CCC2(CC1)CC(C(=O)NCc1ccccc1)=NO2` [Example 115, 8-(2-ethylsulphanyl-pyridine-3-carbonyl)-1-oxa-2,8-diaza-spiro[4,5]dec-2-ene-3-carboxylic acid benzylamide] was run?
**A.** 55%

**Q.** `CCOC(=O)CCNC(=O)C1=NOC2(CCN(S(=O)(=O)c3ccccc3Cl)CC2)C1` [Example 116, 3-{[8-(2-chloro-benzenesulphonyl)-1-oxa-2,8-diaza-spiro[4,5]dec-2-ene-3-carbonyl]-amino}-propionic acid ethyl ester] was tested. Which inhibition at 10 µM did it give?
**A.** 60%

**Q.** For `O=C(NCC1CC1)C1=NOC2(CCN(C(=O)c3ccc(OC(F)(F)F)cc3)CC2)C1` [Example 117, 8-(4-trifluoromethoxy-benzoyl)-1-oxa-2,8-diaza-spiro[4,5]dec-2-ene-3-carboxylic acid cyclopropylmethyl-amide], which inhibition at 10 µM is on record?
**A.** 46%

**Q.** For `O=C(NCC1CC1)C1=NOC2(CCN(C(=O)CCCOc3ccccc3)CC2)C1` [Example 118, 8-(4-phenoxy-butyryl)-1-oxa-2,8-diaza-spiro[4,5]dec-2-ene-3-carboxylic acid cyclopropylmethyl-amide], which inhibition at 10 µM is on record?
**A.** 46%

**Q.** With `O=C(C1=NOC2(CCN(S(=O)(=O)c3cccc(C(F)(F)F)c3)CC2)C1)N1CCN(c2cc(C(F)(F)F)ccn2)CC1` [Example 119] as the molecule, how does the “NA-uptake, 10 μM, % inhibition” value read?
**A.** 43%

**Q.** `O=C(NCC1CC1)C1=NOC2(CCN(C(=O)c3cc(C(F)(F)F)ccc3Cl)CC2)C1` [Example 120, 8-(2-chloro-5-trifluoromethyl-benzoyl)-1-oxa-2,8-diaza-spiro(4,5]dec-2-ene-3-carboxylic acid cyclopropylmethyl-amide] was tested. Which inhibition at 10 µM did it give?
**A.** 40%

**Q.** For `CCOC(=O)N1CCC(NC(=O)C2=NOC3(CCN(S(=O)(=O)c4cccc(C(F)(F)F)c4)CC3)C2)CC1` [Example 122, 4-{[8-(3-trifluoromethyl-benzenesulphonyl)-1-oxa-2,8-diaza-spiro[4,5]dec-2-ene-3 carbonyl]-amino}-piperidine-1-carboxylic acid ethyl ester], which inhibition at 10 µM is on record?
**A.** 41%

**Q.** `CC(Oc1ccccc1)C(=O)N1CCC2(CC1)CC(C(=O)NCC1CC1)=NO2` (stereo not shown) [Example 123, 8-(2-phenoxy-propionyl)-1-oxa-2,8-diaza-spiro[4,5]dec-2-ene-3-carboxylic acid cyclopropylmethyl-amide] was tested. Which inhibition at 10 µM did it give?
**A.** 42%

**Q.** Which inhibition at 10 µM does the source give for `COc1cccc(CCNC(=O)C2=NOC3(CCN(S(=O)(=O)c4ccc(F)cc4)CC3)C2)c1` [Example 124, 8-(4-fluoro-benzenesulphonyl)-1-oxa-2,8-diaza-spiro[4,5]dec-2-ene-3-carboxylic acid [2-(3-methoxy-phenyl)-ethyl]-amide] here?
**A.** 49%

**Q.** Which inhibition at 10 µM does the source give for `CSc1ncccc1C(=O)N1CCC2(CC1)CC(C(=O)NCC(C)C)=NO2` [Example 125, 8-(2-methylsulphanyl-pyridine-3-carbonyl)-1-oxa-2,8-diaza-spiro[4,5]dec-2-ene-3-carboxylic acid isobutyl-amide] here?
**A.** 40%

**Q.** With `Cc1oc(C(C)(C)C)cc1C(=O)N1CCC2(CC1)CC(C(=O)NC1CCCC1)=NO2` [Example 126, 8-(5-tert-butyl-2-methyl-furan-3-carbonyl)-1-oxa-2,8-diaza-spiro[4,5]dec-2-ene-3-carboxylic acid cyclopentylamide] as the molecule, how does the inhibition at 10 µM read?
**A.** 67%

**Q.** With `O=C(NCc1cccs1)C1=NOC2(CCN(S(=O)(=O)c3ccc(Cl)cc3)CC2)C1` [Example 127, 8-(4-chloro-benzenesulphonyl)-1-oxa-2,8-diaza-spiro[4,5]dec-2-ene-3-carboxylic acid (thiophen-2-ylmethyl)-amide] as the molecule, how does the inhibition at 10 µM read?
**A.** 51%

**Q.** `O=C(NCc1cccc2ccccc12)C1=NOC2(CCN(S(=O)(=O)c3ccc(Cl)s3)CC2)C1` [Example 128, 8-(5-chloro-thiophene-2-sulphonyl)-1-oxa-2,8-diaza-spiro[4,5]dec-2-ene-3-carboxylic acid naphthalen-l-ylmethyl-amide] was tested. Which “NA-uptake, 10 μM, % inhibition” value did it give?
**A.** 45%

**Q.** `O=C(NCCc1ccc(F)cc1)C1=NOC2(CCN(S(=O)(=O)c3ccc(OC(F)(F)F)cc3)CC2)C1` [Example 129, 8-(4-trifluoromethoxy-benzenesulphonyl)-1-oxa-2,8-diaza-spiro[4,5]dec-2-ene-3-carboxylic acid [2-(4-fluorophenyl)-ethyl]-amide] was tested. Which inhibition at 10 µM did it give?
**A.** 43%

**Q.** For `COc1ccc(C(=O)N2CCC3(CC2)CC(C(=O)NCc2ccccc2)=NO3)cc1` [Example 131, 8-(4-methoxy-benzoyl)-1-oxa-2,8-diaza-spiro[4,5]dec-2-ene-3-carboxylic acid benzylamide], which inhibition at 10 µM is on record?
**A.** 57%

**Q.** With `O=C(NCc1cccc(Cl)c1)C1=NOC2(CCN(S(=O)(=O)c3cccc(C(F)(F)F)c3)CC2)C1` [Example 132, 8-(3-trifluoromethyl-benzenesulphonyl)-1-oxa-2,8-diaza-spiro[4,5]dec-2-ene-3-carboxylic acid 3-chlorobenzylamide] as the molecule, how does the inhibition at 10 µM read?
**A.** 46%

**Q.** For `Cc1ccccc1N1CCN(C(=O)C2=NOC3(CCN(S(=O)(=O)Cc4ccccc4)CC3)C2)CC1` [Example 133, (8-phenylmethanesulphonyl-1-oxa-2,8-diaza-spiro[4,5]dec-2-en-3-yl)-(4-o-tolyl-piperazin-l-yl)-methanone], which “NA-uptake, 10 μM, % inhibition” value is on record?
**A.** 48%

**Q.** For `O=C(C1=NOC2(CCN(S(=O)(=O)Cc3ccccc3)CC2)C1)N1CCN(c2ccccn2)CC1` [Example 134, (8-phenylmethanesulphonyl-1-oxa-2,8-diaza-spiro[4,5]dec-2-en-3-yl)-(4-pyridin-2-yl-piperazin-1-yl)-methanone], which inhibition at 10 µM is on record?
**A.** 51%

**Q.** How did the inhibition at 10 µM turn out when `O=C(NCc1cccs1)C1=NOC2(CCN(C(=O)c3ccc(SC(F)(F)F)cc3)CC2)C1` [Example 135, 8-(4-trifluoromethylsulphanyl-benzoyl)-1-oxa-2,8-diaza-spiro[4,5]dec-2-ene-3-carboxylic acid (thiophen-2-ylmethyl)-amide] was run?
**A.** 56%

**Q.** Which inhibition at 10 µM does the source give for `O=C(NCc1ccccc1)C1=NOC2(CCN(S(=O)(=O)c3cccs3)CC2)C1` [Example 136, 8-(thiophene-2-sulphonyl)-1-oxa-2,8-diaza-spiro[4,5]dec-2-ene-3-carboxylic acid benzylamide] here?
**A.** 53%

**Q.** `CC(C)CNC(=O)C1=NOC2(CCN(C(=O)c3ccc(F)cc3)CC2)C1` [Example 137, 8-(4-fluoro-benzoyl)-1-oxa-2,8-diaza-spiro[4,5]dec-2-ene-3-carboxylic acid isobutyl-amide] was tested. Which inhibition at 10 µM did it give?
**A.** 49%

**Q.** Which inhibition at 10 µM does the source give for `COC(=O)c1ccccc1S(=O)(=O)N1CCC2(CC1)CC(C(=O)NCC(C)C)=NO2` [Example 138, 2-(3-isobutylcarbamoyl-1-oxa-2,8-diaza-spiro[4,5]dec-2-ene-8-sulphonyl)-benzoic acid methyl ester] here?
**A.** 49%

**Q.** `CN(C)S(=O)(=O)N1CCC2(CC1)CC(C(=O)NC(Cc1ccccc1)C(=O)OC(C)(C)C)=NO2` (stereo not shown) [Example 139, 2-[(8-dimethylsulphamoyl-1-oxa-2,8-diaza-spiro[4,5]dec-2-ene-3-carbonyl)-amino]-3-phenyl-propionic acid tert-butyl ester] was tested. Which inhibition at 10 µM did it give?
**A.** 51%

**Q.** With `CC(NC(=O)C1=NOC2(CCN(S(=O)(=O)c3ccc(Cl)s3)CC2)C1)c1cccc2c1OCCO2` (stereo not shown) [Example 140, 8-(5-chloro-thiophene-2-sulphonyl)-1-oxa-2,8-diaza-spiro[4,5]dec-2-ene-3-carboxylic acid [1-(2,3-dihydro-benzo[1,4]dioxin-5-yl)-ethyl]-amide] as the molecule, how does the inhibition at 10 µM read?
**A.** 83%

**Q.** `O=C(NCc1cccs1)C1=NOC2(CCN(C(=O)c3ccc(Br)cc3)CC2)C1` [Example 141] was tested. Which “NA-uptake, 10 μM, % inhibition” value did it give?
**A.** 61%

**Q.** `O=C(NCCCn1ccnc1)C1=NOC2(CCN(S(=O)(=O)c3ccc(F)cc3)CC2)C1` [Example 142, 8-(4-fluoro-benzenesulphonyl)-1-oxa-2,8-diaza-spiro[4,5]dec-2-ene-3-carboxylic acid (3-imidazol-1-yl-propyl)-amide] was tested. Which inhibition at 10 µM did it give?
**A.** 49%

**Q.** `O=C(OCc1ccccc1)N1CCN(C(=O)C2=NOC3(CCN(S(=O)(=O)c4ccc(F)cc4)CC3)C2)CC1` [Example 143] was tested. Which “NA-uptake, 10 μM, % inhibition” value did it give?
**A.** 47%

same assay, conditions: rat hypothalamus synaptosomes, 10 µM

**Q.** `COc1ccc(S(=O)(=O)N2CCC3(CC2)CC(C(=O)NC2CCCC2OCc2ccccc2)=NO3)cc1` (stereo not shown) [Example 121, 8-(4-methoxy-benzenesulphonyl)-1-oxa-2,8-diaza-spiro[4,5]dec-2-ene-3-carboxylic acid (2-benzyloxy-cyclopentyl)-amide] was tested. Which “NA-uptake, 10 μM, % inhibition” value did it give?
**A.** 55%
